Laboratory results as given in US6335346B1 (MACEF, priority 1999, dated 2002).

Tests used:
[1] = tested on: chicks of chair label JA657 strain; assay: Hypnotic and sedative activities in chicks (alternate lighting, test between 2.00 pm and 3.00 pm); conditions: for ST (sleeping time) / Sedation time (after waking up, Stage 2) / FAT (falling-asleep time): IM; for FAT (falling-asleep time): to the nearest minute
Beagle dogs = assay: Hypnotic activity in Beagle dogs (polygraphic measurement of the conscious and sleeping states); format: in vivo, dog; conditions: for Mean duration of the state of consciousness: Consciousness / Mean duration of the state of consciousness: Drowsiness / Mean duration: P.S. (paradoxal sleep) / Mean duration: Slow-wave sleep S1 + S2 / Mean duration: Total sleep / Mean latency time: Drowsiness / Mean latency time: P.S. (paradoxal sleep) / Mean latency time: Slow-wave sleep S1: 7 Beagle dogs, IV single bolus; for Mean duration of the state of consciousness: Consciousness / Mean duration of the state of consciousness: Drowsiness / Mean duration: P.S. (paradoxal sleep) / Mean duration: Slow-wave sleep S1 + S2 / Mean duration: Total sleep: 150 min recording; for Hypnotic power (in words): Beagle dogs, IV, sleep with high proportion of slow waves, consciousness reduced, latencies reduced
Protocol: During each test, the dogs are taken to a recording room in which they are connected to a Schwarzer ED 24 polygraph driven by Brainlab® for Windows® by means of a flexible cable. The dog is then placed in a 0.70×1×0.8 m metal cage in which it stays for 150 minutes.
The test products and the placebo were administered intravenously as a single bolus into the anterior median vein. The recordings are noted in periods of 30 seconds following the five states of vigilance defined by Shelton et al.:
deep slow-wave sleep, and
by examining the amplitude and frequency of the 2 frontal EEG plots (frontal), the EOG plots (bilateral) and the EMG plots (neck muscles) as follows:
Conscious: The dogs may be standing, sitting or lying down, or moving between these positions. Their eyes are open. This state includes all the episodes of multiple voltage and frequency with muscular activity.
Drowsy: The dogs are lying down with the eyes closed for most of the time. The EEG plots show slow-wave cycles (5-7 Hz) without the appearance of spindles. Large-amplitude synchronous slow waves (4-7 Hz) appear on a background of rapid activity. The EMG tends to be reduced compared with the conscious state.
Light sleep (SL1 or S1): The dogs are lying down in the stretched ventral position or, usually, in an incomplete circle. The relaxation is total. The EEG plots are characterized by K complexes and/or spindles. The amplitude increases.
Deep sleep (SL2 or S2): The dogs are lying down, with relaxed muscles. They remain without reaction to moderate stimulations (by sound). The slow delta waves (<4 Hz) with an amplitude of at least 70 μV constitute at least 20% of a period of 30 seconds.
Paradoxal sleep (PS): The dogs are lying down with the eyes closed and occasionally display rapid contractions of the eyelids and/or myoclonia, in particular of the labial extensor muscles. The EEG plots are of low voltage and varied frequencies. The EOG plots show rapid contractions. The EMG plot is of low amplitude, with the exception of the short-lived clonus. A period is classified as paradoxal sleep only if the preceding period is a period of sleep. The end of a period of paradoxal sleep is determined by the appearance of K complexes or spindles, or by the appearance of EMG activity.
The test compounds are administered intravenously by means of a vehicle having the composition: 50/50 (V/V) PEG-400/water for injectable preparations, as a single bolus of 10 ml per 12 kg of live weight.
The placebo consists of the intravenous administration of the vehicle alone, having the composition: 50/50 (V/V) PEG-400/water for injectable preparations, as a single bolus of 10 ml per 12 kg of live weight.
The distribution of the observation time spent in each of the stages of consciousness and sleep, as well as the latency times for onset of the first stages of each type of sleep, are given in Table I.

[2] = 0.5 μmol/100 g, batch means of 3 chicks, limit values if >2 batches
[3] = 1 μmol/100 g, batch means of 3 chicks, limit values if >2 batches
[4] = 2 μmol/100 g, batch means of 3 chicks, limit values if >2 batches

Compound: COc1ccc2[nH]c3c(c2c1)CCN=C3C [10-METHOXYHARMALAN, 10-methoxy harmalan]
- ST (sleeping time) ([1]; 1.4 μmol/100 g (3 mg/kg)): 0
- Sedation time (after waking up, Stage 2) ([1]; 1.4 μmol/100 g (3 mg/kg)): 0

Compound: CN1C(=O)CN=C(c2ccccc2)c2cc(Cl)ccc21 [DIAZEPAM, diazepam]
- ST (sleeping time) [1, 2]: 10-50
- FAT (falling-asleep time) [1, 2]: 3-6
- ST (sleeping time) [1, 3]: 24-70
- Sedation time (after waking up, Stage 2) [1, 3]: 17-20
- FAT (falling-asleep time) [1, 3]: 2-7
- ST (sleeping time) [1, 4]: 81-100
- Sedation time (after waking up, Stage 2) [1, 4]: 14-15
- FAT (falling-asleep time) [1, 4]: 2-5

Compound: C=C1c2[nH]c3ccc(OC)cc3c(=O)c2CN1C(C)=O [Example 1, 2-Acetyl-7-methoxy-3-methylene-9-oxo-1,3,4,9-tetrahydropyrrolo[3,4-b]quinoline]
- ST (sleeping time) [1, 4]: 30
- Sedation time (after waking up, Stage 2) [1, 4]: 35
- FAT (falling-asleep time) [1, 4]: 10.5

Compound: CCC1=C2c3[nH]c4ccc(OC)cc4c(=O)c3CN2C(=O)CC1 [Example 4]
- Mean duration of the state of consciousness: Consciousness (Beagle dogs; 1.5 μmol/kg): 115.4 min
- Mean duration of the state of consciousness: Drowsiness (Beagle dogs; 1.5 μmol/kg): 15.9 min
- Mean duration: P.S. (paradoxal sleep) (Beagle dogs; 1.5 μmol/kg): 2.4 min
- Mean duration: Slow-wave sleep S1 + S2 (Beagle dogs; 1.5 μmol/kg): 16.3 min
- Mean duration: Total sleep (Beagle dogs; 1.5 μmol/kg): 34.6 min
- Mean latency time: Drowsiness (Beagle dogs; 1.5 μmol/kg): 63.8 min
- Mean latency time: P.S. (paradoxal sleep) (Beagle dogs; 1.5 μmol/kg): 114.8 min
- Mean latency time: Slow-wave sleep S1 (Beagle dogs; 1.5 μmol/kg): 84.8 min
- Hypnotic power (in words) (Beagle dogs): marked hypnotic power
- ST (sleeping time) [1, 3]: 30
- Sedation time (after waking up, Stage 2) [1, 3]: 47
- FAT (falling-asleep time) [1, 3]: 13

Compound: COc1ccc2[nH]c3c(c(=O)c2c1)CN1C(=O)CCC(c2ccccc2)=C31 [Example 5]
- Mean duration of the state of consciousness: Consciousness (Beagle dogs; 1 μmol/kg): 108.1 min
- Mean duration of the state of consciousness: Drowsiness (Beagle dogs; 1 μmol/kg): 15.8 min
- Mean duration: P.S. (paradoxal sleep) (Beagle dogs; 1 μmol/kg): 2.6 min
- Mean duration: Slow-wave sleep S1 + S2 (Beagle dogs; 1 μmol/kg): 23.4 min
- Mean duration: Total sleep (Beagle dogs; 1 μmol/kg): 41.9 min
- Mean latency time: Drowsiness (Beagle dogs; 1 μmol/kg): 51.7 min
- Mean latency time: P.S. (paradoxal sleep) (Beagle dogs; 1 μmol/kg): 110.7 min
- Mean latency time: Slow-wave sleep S1 (Beagle dogs; 1 μmol/kg): 69.0 min
- Hypnotic power (in words) (Beagle dogs): marked hypnotic power
- ST (sleeping time) ([1]; 0.87 μmol/100 g (3.12 mg/kg)): 36
- Sedation time (after waking up, Stage 2) ([1]; 0.87 μmol/100 g (3.12 mg/kg)): 44
- FAT (falling-asleep time) ([1]; 0.87 μmol/100 g (3.12 mg/kg)): 10

Compound: COc1ccc2[nH]c3c(c(=O)c2c1)CN(C(C)=O)C3C (stereo not drawn) [Example 6, 2-Acetyl-7-methoxy-3-methyl-9-oxo-1,3,4,9-tetrahydropyrrolo[3,4-b]quinoline]
- ST (sleeping time) [1, 4]: 33
- Sedation time (after waking up, Stage 2) [1, 4]: 27
- FAT (falling-asleep time) [1, 4]: 15

Compound: CCC1CCC(=O)N2Cc3c([nH]c4ccc(OC)cc4c3=O)C12 (stereo not drawn) [Example 9]
- ST (sleeping time) [1, 3]: 36
- Sedation time (after waking up, Stage 2) [1, 3]: 44
- FAT (falling-asleep time) [1, 3]: 7

Compound: COc1ccc2c3c([nH]c2c1)C(C)=NCC3 [HARMALIN, harmaline]
- ST (sleeping time) ([1]; 1.4 μmol/100 g (3 mg/kg)): 0
- Sedation time (after waking up, Stage 2) ([1]; 1.4 μmol/100 g (3 mg/kg)): 0

Compound: COc1ccc2[nH]cc(CCNC(C)=O)c2c1 [MELATONIN, melatonin]
- ST (sleeping time) [1, 2]: 0
- ST (sleeping time) [1, 3]: 0
- Sedation time (after waking up, Stage 2) [1, 3]: 16-36
- ST (sleeping time) [1, 4]: 0
- Sedation time (after waking up, Stage 2) [1, 4]: 47-105
- Hypnotic activity (in words) ([1]; administration during the daylight phase between 2.00 pm and 3.00 pm): no hypnotic activity

Compound: CCCC(C)C1(CC)C(=O)NC(=O)NC1=O (stereo not drawn) [PENTOBARBITAL, pentobarbital sodium]
- ST (sleeping time) [1, 2]: 0
- ST (sleeping time) [1, 3]: 36
- FAT (falling-asleep time) [1, 3]: 13
